From US12617777B2, “GPR84 antagonists and uses thereof” (Liminal BioSciences Limited, priority 2021, dated 2026)

Target: T1, human GPR84 receptor (Homo sapiens, UniProt Q9NQS5)
T1 construct: host or cells: HEK293, transient transfection
Assay: Gαi biosensor BRET assay in HEK293 cells (antagonism of ZQ-16)
Assay type: cell-based
Conditions: for inhibition at 10 µM: HEK293, single concentration 10 μM (designated F); for IC50: HEK293 cells, antagonism of 200 nmol/L ZQ-16; for inhibition at 2 µM: HEK293, single concentration 2 μM (designated A); for inhibition at 25 µM: HEK293, single concentration 25 μM (designated I)
Source text: Background—The following assays can be used for determination of GPR84 activation in living HEK293 cells. The Gai BRET biosensor (Gagnon et al., 2018; Gales et al., 2006. Nat StructMol Biol. 13, 778-86; Saulieres et al., 2012. Nat Chem Biol. 8, 622-30) allows to directly monitor GPR84-mediated activation of Gai. The Gai biosensor consists of a Rluc8-tagged Gαi2 subunit, a GFP10-tagged Gγ2 subunit, and an untagged Gβ1. Agonist stimulation and GPR84 activation triggers a physical separation between the RLuc8-Gαi donor and the GFP10-Gγ2 acceptor, resulting in a decrease in BRET signal whose amplitude is correlated to ligand efficacy (Gales et al., 2006). Moreover, signaling functions of GPCRs are tightly regulated by endocytosis, the targeting of receptors to endosomes and their sorting to lysosomes or recycling to the plasma membrane. The early endosomes (EEs) trafficking assay (Namkung et al., 2016. Nat Commun. 7, 12178) uses Rluc8-tagged GPR84 and Renilla GFP (rGFP) attached to the FYVE domain from human endofin/zinc finger FYVE domain-containing protein 16, which binds phosphatidylinositol 3-phosphate in EEs. Agonist stimulation of GPR84-Rluc8 leads to trafficking of the receptor to EEs, and ensuing increase of the donor concentration relative to the rGFP-FYVE acceptor anchored in the same cellular compartment, and thus results in an increase in BRET signal.
Plasmids—The cDNA clones for human GPR84 receptor, human Gai2, Gp1, and Gy2 were obtained from the cDNA Resource Center (www.cdna.org). GFP10 (F64L, S147P, S202F and H231L variant of Aequorea victoria Green Fluorescent Protein) gBlocks gene fragments (Integrated DNA Technologies, IA) and linker were inserted in frame at the N-terminus of human Gγ2. Rluc8 (A55T, C124A, S130A, K136R, A143M, M185V, M253L, and S287L variant of the Renilla renformis luciferase) gBlocks gene fragment was inserted with linkers in frame in between residues 91 and 92 of Gai2 or at the C-terminus of GPR84. The FYVE domain from human endofin (residues Q739 to K806) attached in frame at the C terminus of a humanized Renilla GFP (rGFP), were synthesized as gBlocks gene fragments.
Bioluminescence Resonance Energy Transfer (BRET) Measurement—HEK293 cells were transfected with GPR84-Rluc8 and rGFP-FYVE for the EEs trafficking biosensor or with GPR84, Gαi2-Rluc8, GFP10-Gγ2, and Gβ1 for the Gαi biosensor. The following day, transiently transfected cells were seeded in 96-well white clear bottom microplates coated with poly-D-lysine and left in culture for 24 hours. Cells were washed once with Tyrode's buffer (140 mmol/L NaCl, 1 mmol/L CaCl2, 2.7 mmol/L KCl, 0.49 mmol/L MgCl2, 0.37 mmol/L NaH2PO4, 5.6 mmol/L glucose, 12 mmol/L NaHCO3, and 25 mmol/L HEPES, pH 7.5) before performing assays in Tyrode's buffer. Test compounds were incubated with cells for 5 (Gαi) or 15 (EEs) minutes at 37° C. before addition of 200 nmol/L of the GPR84 agonist ZQ-16 (2-(Hexylthio)-6-hydroxy-4(3H)-pyrimidinone) for 5 minutes at room temperature (Gαi) or 30 minutes at 37° C. (EEs). The Rluc8 substrate coelenterazine 400A (Prolume, Lakeside, AZ) was added at a final concentration of 5 μmol/L and BRET readings were collected using an Infinite M1000 microplate reader (Tecan, Morrisville, NC). BRET^2 readings between Rluc8 and GFP10 or rGFP were collected by sequential integration of the signals detected in the 370 to 450 nm (Rluc8) and 510 to 540 nm (GFP10, rGFP) windows. The BRET signal was calculated as the ratio of light emitted by acceptor (GFP10, rGFP) over the light emitted by donor (Rluc8). The values were corrected to net BRET by subtracting the background BRET signal obtained in cells transfected with Rluc8 constructs alone. Ligand-promoted net BRET values were calculated by subtracting vehicle-induced net BRET from ligand-induced net BRET.

T1 sequence (Q9NQS5 whole entry): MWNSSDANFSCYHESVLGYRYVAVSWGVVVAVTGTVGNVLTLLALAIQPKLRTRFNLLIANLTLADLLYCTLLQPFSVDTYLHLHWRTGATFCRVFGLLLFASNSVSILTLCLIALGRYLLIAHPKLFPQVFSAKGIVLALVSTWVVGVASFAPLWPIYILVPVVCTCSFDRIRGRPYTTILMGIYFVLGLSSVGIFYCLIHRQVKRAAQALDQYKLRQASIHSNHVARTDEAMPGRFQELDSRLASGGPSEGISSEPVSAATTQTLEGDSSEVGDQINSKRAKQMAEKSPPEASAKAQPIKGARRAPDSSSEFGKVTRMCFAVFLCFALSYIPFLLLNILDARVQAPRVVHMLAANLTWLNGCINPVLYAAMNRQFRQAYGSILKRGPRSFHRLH

Row | SMILES | inhibition at 10 µM [%] | further results
1 | CN(C)c1cc(C#N)ccc1-c1cn(CC2OCC(C)(C)CO2)nn1 [Compound I-733, 4-(1-((5,5-dimethyl-1,3-dioxan-2-yl)methyl)-1H-1,2,3-triazol-4-yl)-3-(dimethylamino)benzonitrile] | 50 to 75 | 
2 | Cc1cc(C#CC2CC2)ccc1-c1cn(CC2CCCC(=O)N2)nn1 (stereo not drawn) [Compound I-516] | ≤ 25 | 
3 | Cn1ccc2c(C#CC3CC3)ccc(-c3cn(CC4CCCCO4)nn3)c21 (stereo not drawn) [Compound I-230] | ≤ 25 | 
4 | Cc1cc(N2CCNCC2)ccc1-c1cn(CC2CCCCO2)nn1 (stereo not drawn) [Compound I-183] | ≤ 25 | 
5 | CC(C)OCC1(C)CN(c2ccc(-c3cn(CC4OCC(C)(C)CO4)nn3)c(N(C)C)c2)C1 [Compound I-754] | > 75 | IC50: 0.3 to 1 µM
6 | Cc1cc(N2CC3(CN(c4cccnc4)C3)C2)ccc1-c1cn(CC2OCC(C)(C)CO2)nn1 [Compound I-684] | > 75 | 
7 | Cc1cc(C#CC2CC2)ccc1-c1nn(C[C@H]2CCCCO2)nc1C [Compound I-345] | ≤ 25 | 
8 | CC(C)Oc1cc(N2CC(C)(CO)C2)cnc1-c1cn(CC2OCC3(CCC3)O2)nn1 (stereo not drawn) [Compound I-809] |  | inhibition at 2 µM: > 75%
9 | CN(C)c1cc(N2CC3(CCOCC3)C2)ccc1-c1cn(CC2OCC(C)(C)CO2)nn1 [Compound I-854] |  | inhibition at 2 µM: > 75%
10 | Cc1cc(N2CCN(C(=O)c3ccccn3)CC2)ccc1-c1cn(CC2CCCCO2)nn1 (stereo not drawn) [Compound I-534] | ≤ 25 | 
11 | Cc1cc(C#CC2CC2)ccc1-c1cn(CC2CCCCS2(=O)=O)nn1 (stereo not drawn) [Compound I-248] | ≤ 25 | 
12 | Cc1cc(N2CCC3(CC2)CN(Cc2ccccc2)C3)ccc1-c1cn(CC2CCCCO2)nn1 (stereo not drawn) [Compound I-173] | ≤ 25 | 
13 | COCC#Cc1cnc(-c2cn(CC3OCC(C)(C)CO3)nn2)c(OC2CC2)c1 [Compound I-757] |  | inhibition at 2 µM: > 75%; IC50: ≤ 0.3 µM
14 | Cc1cc(C#CC2CC2)ccc1-n1cc(CC2CCOCC2)nn1 [Compound I-269] | ≤ 25 | 
15 | Cc1cc(C#CC2CC2)ccc1-c1ncn(CC2CCCCO2)c1C (stereo not drawn) [Compound I-339] | 25 to 50 | 
16 | CC1(C)COC(Cn2cc(-c3ncc(C#CCNC4CC4)cc3OC3CC3)nn2)OC1 [Compound I-856] | > 75 | 
17 | CC(=O)c1cc(C#CC2CC2)ccc1-c1cn(CC2CCCCO2)nn1 (stereo not drawn) [Compound I-124] | 25 to 50 | 
18 | CN(C)c1cc(C#CC2CC2)ccc1-c1cn(CC2CCOCC2)nn1 [Compound I-200] | 25 to 50 | 
19 | COC(c1cn(CC2CCCCO2)cn1)c1cc(C#CC2CC2)ccc1C (stereo not drawn) [Compound I-646] |  | inhibition at 2 µM: > 75%; IC50: 0.3 to 1 µM
20 | Cc1cc(C#CC2CC2)ccc1-c1cn(CCOCC2CCCCO2)nn1 (stereo not drawn) [Compound I-85] |  | inhibition at 25 µM: 25 to 50%
21 | Cc1cc(NC(=O)N2CCCC2)ccc1-c1cn(CC2CCCCO2)nn1 (stereo not drawn) [Compound I-110] | ≤ 25 | 
22 | COC(c1cccc(C#CC2CC2)c1)c1cn(CC2CCCCO2)nn1 (stereo not drawn) [Compound I-490] | > 75 | IC50: 0.3 to 1 µM
23 | CCc1cc(C#CCN2CC(C)(CO)C2)cnc1-c1cn(CC2OCC(C)(C)CO2)nn1 [Compound I-789] | 50 to 75 | IC50: 0.3 to 1 µM
24 | Cc1cc(N2CCN(Cc3ccnn3C)CC2)ccc1-c1cn(CC2CCCCO2)nn1 (stereo not drawn) [Compound I-581] | ≤ 25 | 
25 | CC1(C)COC(Cn2cc(-c3ncc(N4CC(C)(CO)C4)cc3Cl)nn2)OC1 [Compound I-765] |  | IC50: 1 to 3 µM
26 | CC(C)Oc1cc(N2CC(C)(CO)C2)cnc1-c1cn(CC2OCC(C)(C)CO2)nn1 [Compound I-694] | > 75 | 

Row | SMILES | inhibition at 10 µM [%] | further results
27 | Cc1cc(C2CCN(Cc3ccccn3)CC2)ccc1-c1cn(CC2CCCCO2)nn1 (stereo not drawn) [Compound I-440] | ≤ 25 | 
28 | CC(c1cccc(C#CC2CC2)c1)c1cn(CC2CCCCO2)nn1 (stereo not drawn) [Compound I-302] | > 75 | 
29 | CCc1cc(C#CCN2CCC(F)(F)CC2)cnc1-c1cn(CC2CCCCO2)nn1 (stereo not drawn) [Compound I-275] | > 75 | 
30 | Cc1cc(C#CCNc2ccncc2)ccc1-c1cn(CC2CCCCO2)nn1 (stereo not drawn) [Compound I-122] | 25 to 50 | 
31 | Cc1cc2ccc(N3CC(C)(C)C3)cc2nc1-c1cn(CC2CCCCO2)nn1 (stereo not drawn) [Compound I-622] |  | inhibition at 2 µM: ≤ 25%
32 | CC1(C)COC(Cn2cc(-c3ncc(C#CCN4CC(C)(C)C4)cc3CC(F)(F)F)nn2)OC1 [Compound I-762] |  | IC50: ≤ 0.3 µM
33 | CC(C)Oc1cc(C#CCN2CC(C)(C)C2)cnc1-c1cn(C[C@H]2CCCCO2)nn1 [Compound I-498] |  | inhibition at 2 µM: 50 to 75%; IC50: 0.3 to 1 µM
34 | Cc1cc(C#CC2CC2)ccc1-c1cn(C[C@@H]2CCCCO2)nn1 [Compound I-174] |  | inhibition at 5 µM (HEK293, single concentration 5 μM (designated D)): ≤ 25%; IC50: > 3 µM
35 | Cc1cc(CN2CCOCC2)ccc1-c1cn(CC2CCCCO2)nn1 (stereo not drawn) [Compound I-74] |  | inhibition at 25 µM: 25 to 50%
36 | Cc1cc(N2CCN(Cc3nccn3C)CC2)ccc1-c1cn(CC2CCCCO2)nn1 (stereo not drawn) [Compound I-580] | 25 to 50 | 
37 | C(#CC1CC1)c1ccc(-c2cn(C[C@H]3CCCCO3)nn2)nc1 [Compound I-28] |  | inhibition at 25 µM: 25 to 50%
38 | Cc1cc(N2CC(C)(C)C2)cnc1-c1cn(CC2OCC(C)(C)CO2)nn1 [Compound I-584] | > 75 | 
39 | Cc1cc(N2CCN(Cc3ccccn3)CC2)cnc1-c1cn(CC2OCC(C)(C)CO2)nn1 [Compound I-597] | 50 to 75 | 
40 | COc1cccc(N(C)c2cn(CC3OCC(C)(C)CO3)nn2)c1 [Compound I-812] | ≤ 25 | 
41 | CC(=O)NCC1(C)CN(c2ccc(-c3cn(CC4CCCCO4)nn3)c(C)c2)C1 (stereo not drawn) [Compound I-447] | 25 to 50 | 
42 | Cc1ccc(-c2cccc(-c3nnn(CC4CCCCO4)c3C)c2)cn1 (stereo not drawn) [Compound I-95] | ≤ 25 | 
43 | Cc1cc(C#CC2CC2)ccc1-c1cn(CC2CCCOC2)nn1 (stereo not drawn) [Compound I-364] | 25 to 50 | 
44 | CC(C)Oc1cc(C#CCNc2ccccn2)cnc1-c1cn(CC2CC(C)(C)CO2)nn1 (stereo not drawn) [Compound I-606] | 50 to 75 | 
45 | Cc1ccc(-c2ccc(-c3cn(C[C@H]4COCCO4)nn3)cc2)cn1 [Compound I-25] |  | inhibition at 12.5 µM (HEK293, single concentration 12.5 μM (designated G)): ≤ 25%
46 | Cc1cc(C#CC2CC2)ccc1-n1nc(CC2CCCCO2)oc1=O (stereo not drawn) [Compound I-12] | 25 to 50 | 
47 | Cc1cc(C#CC2CC2)ccc1-c1cn(CC2CNC(=O)O2)nn1 (stereo not drawn) [Compound I-458] | ≤ 25 | 
48 | C(#CC1CC1)c1ccc(-c2cn(CC3CCCCO3)nn2)c(N2CCC2)c1 (stereo not drawn) [Compound I-199] | ≤ 25 | 
49 | CN(C)CC#Cc1ccc(-c2cn(CC3CCCCO3)nn2)cc1 (stereo not drawn) [Compound I-47] |  | inhibition at 25 µM: ≤ 25%
50 | Cc1cc(C#CC2CC2)ccc1-c1cn(CCOCC2COCCO2)nn1 (stereo not drawn) [Compound I-92] |  | inhibition at 25 µM: 25 to 50%
51 | Cc1ccc(C#CC2CC2)cc1[S+]([O-])c1cn(CC2OCC(C)(C)CO2)nn1 (racemic) [Compound I-782, (RS)-4-((5-(cyclopropylethynyl)-2-methylphenyl)sulfinyl)-1-((5,5-dimethyl-1,3-dioxan-2-yl)methyl)-1H-1,2,3-triazole] | > 75 | 
52 | Cc1cc(N2CCCC(N(C)Cc3ccccc3)C2)ccc1-c1cn(CC2CCCCO2)nn1 (stereo not drawn) [Compound I-171] | > 75 | IC50: 1 to 3 µM
